Laboratory results published in patent US20240180139A1, “SOLVENT FOR INSECT REPELLENT ACTIVE INGREDIENT AND INSECT REPELLENT SYSTEM USING SAME” (Thermacell Repellents, Inc., priority 2021, published 2024).
Like-named read-outs stand apart in the source and are kept apart here. One block for each molecule: values may come before it.

How the values were obtained:
[1] = solubility of pyrethroid active ingredients in glycol solvents
From the text: In the development of active ingredient and solvent formulations, glycols, like glycol-related solvents, have physical and chemical characteristics that would not be considered an aspiration hazard. Evaluations of a range of glycol and modified glycol solvents also involved consideration of a variety of materials in contact with these solvents. […] In addition to considerations of the device, solubility of the active ingredients is a significant consideration on several levels. […] Considerations of not only the solvent material but the concentration levels of particular active ingredients ae necessary to create an efficacious formula compatible with heated repeller devices. […] Incorporating active ingredients at such high levels creates additional solubility challenges which further reduces suitable active ingredient candidates.

[2] = release / vaporization rate through heated wick of dispensing device; type: physicochemical; details: relative to metofluthrin and transfluthrin, in certain test conditions
From the text: (§1) Once candidate materials are identified, considerations of whether release rates relative to the selected glycols would be sufficient to deliver good spatial mosquito repellency. […] In one embodiment, an approximate 70:30 solvent ratio of two solvents is provided.

[3] = tested on: mosquitoes; experiment: outdoor spatial mosquito repellency
From the text: as §1, with “provided. In another aspect, the solvent ratio may be a ratio range such as 60-70:40-30, or 65-70:35-30, wherein the sum of specific glycol amounts totals to 100.” for “provided.”

SMILES: OCCO [ethylene glycol]
solvent quality for insect repellents ([1]; some of the insect repellents, particularly prallethrin (FIG. 6)): not good solvents

release rate capacity [2]: limited release rate capacity
SMILES: OCC(O)CO [glycerol]

SMILES: C/C=C/C1C(C(=O)OCc2c(F)c(F)c(COC)c(F)c2F)C1(C)C (centres unmarked) [metofluthrin]
zone of mosquito repellency ([3]; glycol as solvent, 3-4 Watt heating element): 20 foot | active ingredient concentration in the formula needed for sufficient outdoor mosquito repellency ([3]; outdoors): 4%

solvent quality for insect repellents [1]: not good solvents
SMILES: CC(O)CO (centres unmarked) [propylene glycol]
